Measured values from ChEMBL document CHEMBL1145708, “Selective cytotoxicity of ginkgetin from Selaginella moellendorffii” (J Nat Prod, 1997).
Values after ≈ are worked out from the molar mass of the structure shown. Active and inactive are the calls of the source. The rule behind the calls is not given here.

Legend:
OVCAR-3 [1] = assay: Growth inhibition of human OVCAR-3 cells upto 10 ug/ml after 48 hrs; type: functional, cell-based
HepG2 = assay: Growth inhibition of human HepG2 cells; type: functional, cell-based
HeLa = assay: Growth inhibition of human HeLa cells; type: functional, cell-based
[2] = Growth inhibition of HEK cells; type: cell-based; conditions: human, hek293
OVCAR-3 [3] = assay: Growth inhibition of human OVCAR-3 cells after 48 hrs; type: functional, cell-based

In the case of `O=c1cc(-c2ccc(O)c(-c3c(O)cc(O)c4c(=O)cc(-c5ccc(O)cc5)oc34)c2)oc2cc(O)cc(O)c12`, the Activity (OVCAR-3 [1]) is reported as “inactive”.
With `COc1ccc(-c2cc(=O)c3c(O)cc(O)c(-c4cc(-c5cc(=O)c6c(O)cc(O)cc6o5)ccc4O)c3o2)cc1` the Activity (OVCAR-3 [1]) was “inactive”.
With `COc1ccc(-c2cc(=O)c3c(O)cc(OC)c(-c4cc(-c5cc(=O)c6c(O)cc(OC)cc6o5)ccc4OC)c3o2)cc1` the Activity (OVCAR-3 [1]) was “inactive”.
With `COc1ccc(-c2cc(=O)c3c(O)cc(OC)c(-c4cc(-c5cc(=O)c6c(O)cc(O)cc6o5)ccc4OC)c3o2)cc1` the Activity (OVCAR-3 [1]) was “inactive”.
In the case of `COc1cc(O)c2c(=O)cc(-c3ccc(OC)c(-c4c(O)cc(O)c5c(=O)cc(-c6ccc(O)cc6)oc45)c3)oc2c1` [GINKGETIN], the Activity (HepG2) is reported as “inactive”, the Activity (HeLa) is reported as “inactive” and the Activity [2] is reported as “Not Active”. The Activity (OVCAR-3 [3]) was “Dose-dependent effect” and the IC50 (OVCAR-3 [3]; OVCAR-3, 48 h) was 1.8 µg/mL (≈ 3.18 µM).
